Results on seven molecules are retold here after PMC7856678 (Bioorganic & medicinal chemistry, 2021).

Where only a bound is given, the exact number is not on record here.

The test system of one data set is TZM-bl/Molt-HIV-1ADA. In words: Cell-to-Cell HIV-1 transmission, CCR5-tropic assay. It is filed as cell-based. The settings on record: Human immunodeficiency virus 1, TZM-bl.
The next data set has as its system TZM-bl/H9-HIV-1IIIB. In words: Cell-to-Cell HIV-1 transmission, CXCR4-tropic assay. It is filed as cell-based. The settings on record: Human immunodeficiency virus 1, TZM-bl.
The nature of data set [1]: Cytotoxicity. The class given is cell-based. The settings on record: human, TZM-bl cells.
Data set [2] in a line: Cytotoxicity. It is filed as cell-based. The settings on record: human, U87-CD4-CXCR4 cells.
In the next data set the test system is VSV-G pseudovirus. Kind of data set: microbe, parasite or virus in culture. The class given is cell-based.
Data set [3] in a line: Solubility of compounds for antiviral/cytotoxicity testing. The class given is physicochemical. The settings on record: assays could not be performed.
The test system of a further data set is TZM-bl cells. The settings on record: cited from earlier work.
The subject of the next data set is U87-CD4-CXCR4 cells. The settings on record: cells of VSV-G assay; cited from earlier work.

`COc1cnc(-n2cnc(C)n2)c2[nH]cc(C(=O)C(=O)N3CCN(C(=O)c4ccccc4)CC3)c12` [BMS-626529]: the IC50 is ~0.2 µM with TZM-bl/Molt-HIV-1ADA and 0.02 ± 0.005 µM with TZM-bl/H9-HIV-1IIIB.
Consider `N#Cc1ccc(-c2ccc(C(=O)N[C@@H](CN)c3nc(CO)cs3)[nH]2)cc1` [Compound 4, N-(2-Amino-1-(4-(hydroxymethyl)thiazol-2-yl)ethyl)-5-(4-cyanophenyl)-1H-pyrrole-2-carboxamide], for which the CC50 at 3 days in “Cytotoxicity [1]” is > 82 µM.
The molecule `NC[C@H](NC(=O)c1ccc(-c2cc(F)c(Cl)c(F)c2)[nH]1)c1nc(CCO)cs1` [Compound 9, N-(2-Amino-1-(4-(2-hydroxyethyl)thiazol-2-yl)ethyl)-5-(4-chloro-3,5-difluorophenyl)-1H-pyrrole-2-carboxamide] returned a CC50 at 72 h in the data set “Cytotoxicity [1]” of 32.8 ± 1 µM.
Consider `NC[C@H](NC(=O)c1ccc(-c2ccc(C(F)(F)F)cc2F)[nH]1)c1nc(CCO)cs1` [Compound 13, N-(2-Amino-1-(4-(2-hydroxyethyl)thiazol-2-yl)ethyl)-5-(2-fluoro-4-(trifluoromethyl)phenyl)-1H-pyrrole-2-carboxamide], for which the CC50 at 3 days in “Cytotoxicity [2]” worked out at 33.5 ± 0.6 µM. The IC50 in the data set on VSV-G pseudovirus turned out to be 11.9 ± 0.5 µM.
On to `NC[C@H](NC(=O)c1ccc(-c2ccc(C(F)(F)F)c(F)c2)[nH]1)c1nc(C(=O)O)cs1` [Compound 21, 2-[2-Amino-1-[[5-[3-fluoro-4-(trifluoromethyl)phenyl]-1H-pyrrole-2-carbonyl]amino]ethyl]thiazole-4-carboxylic acid], for which the “Solubility” value in data set [3] is given as “Not soluble”.
Turning to `NC[C@@H](NC(=O)c1ccc(-c2ccc(C(F)(F)F)c(F)c2)[nH]1)c1nc(C(=O)O)cs1` [Compound 22, 2-[2-Amino-1-[[5-[3-fluoro-4-(trifluoromethyl)phenyl]-1H-pyrrole-2-carbonyl]amino]ethyl]thiazole-4-carboxylic acid], in data set [3], the “Solubility” value is “Not soluble”.
For the molecule `NC[C@@H](NC(=O)c1ccc(-c2ccc(C(F)(F)F)cc2)[nH]1)c1ncc(CO)s1` [NBD-14136], the CC50 in the data set on TZM-bl cells was 42.4 ± 1 µM; in the data set on U87-CD4-CXCR4 cells, 46.3 ± 10.6 µM.

The term IC50 denotes the point on the concentration scale where inhibition reaches its midpoint. For orientation: CC50 means the concentration that lowers cell viability or growth by half.
